Results taken from paper PMC4193777 (PLoS ONE, 2014).
One block for each molecule: values may come before it. Where a SMILES comes first, the peptide text is derived from it. Where no end group is shown, it is not given here. The star is where a group is joined. Palmitoyl = CCCCCCCCCCCCCCCC(=O)*

Key:
[1] = test system: neutrophils; assay: Priming of FPR2 agonist-induced superoxide response; type: cell-based, human; conditions: for priming effect on F2Pal10-induced superoxide / priming effect on WKYMVM-induced superoxide: versus non-primed cells, n = 3; for priming effect on WKYMVM-induced superoxide: WKYMVM 50 nM
Method: (§1) Human peripheral blood neutrophils were isolated from buffy coats from healthy blood donors using dextran sedimentation and Ficoll-Paque gradient centrifugation as described. The remaining erythrocytes were disrupted by hypotonic lysis, the neutrophils were washed twice, resuspended in KRG, and stored on melting ice until use. This isolation procedure permits cells to be purified with minimal granule mobilization.
(§2) The NADPH-oxidase activity was determined using isoluminol-enhanced chemiluminescence (CL), [27]. The CL activity was measured in a six-channel Biolumat LB 9505 (Berthold Co., Wildbad, Germany), using disposable 4-ml polypropylene tubes with a 900 µl reaction mixture containing 10^5 cells, isoluminol (2×10^−5 M) and HRP (2 U). The tubes were equilibrated in the Biolumat for 5 min at 37°C, after which the stimulus (100 µl) was added and the light emission was recorded continuously. Receptor desensitized cells were defined as naïve (non-desensitized) cells that had first been stimulated with a receptor specific agonist and returned to baseline after the resulting release of superoxide before a second stimulation. When reactivation experiments were performed with antagonists, the antagonists were added to the CL reaction mixture 1 min before the second stimulation. For studies with signaling inhibitors, cells were incubated with inhibitors at 37°C for 15 min before agonist addition. Control cells received no treatment but were incubated under the same conditions.
A. A representative experiment of an F2Pal10 induced response in control (solid line) and latrunculin A treated neutrophils (dashed line) is shown. The time point for addition of F2Pal10 is indicated by an arrow. Abscissa: Time of study (min); ordinate: Superoxide production (Mcpm). […] A non-priming cut-off line (fold increase = 1) is included as a horizontal broken line in the figure.

[2] = test system: desensitized FPR2; assay: PAF-induced cross-talk reactivation of desensitized FPR2 (superoxide); type: cell-based, human; conditions: PAF 100 nM; for inhibition of PAF response in FPR2-desensitized neutrophils: inhibitor before PAF, calyculin A 60 nM 10 min at 37°C, PBP10 1 µM, WEB2086 data not shown
Method: as §1, §2
Figure 3 PAF- or ATP-stimulation induces reactivation of desensitized FPR2. […] A representative experiment is shown and the time point for addition of FPR2 agonists is indicated by the first arrow, the time point for PAF stimulation (100 nM final concentration) with the second arrow. The control PAF response induced in naïve (non-desensitized) neutrophils is shown for comparison (dotted line). Abscissa: Time of study (min); ordinate: Superoxide production (Mcpm). B. Naïve neutrophils were first desensitized with F2Pal10 (F2Pal10des., 500 nM final concentration) and subsequently stimulated with PAF (100 nM final concentration; time point for PAF addition is indicated by an arrow). The FPR2 specific inhibitor PBP10 (1 µM) was added 1 min prior to PAF stimulation (dashed line) and the release of superoxide anions was recorded continuously. The PAF responses induced in naïve cells (solid line), as well as in F2Pal10-desensitized cells receiving no PBP10 (dotted line), are shown for comparison. Abscissa: Time of study (min); ordinate: Superoxide production (Mcpm). C. Effect of calyculin A on receptor cross-talk induced FPR2 reactivation. Cells desensitized with F2Pal10 (F2Pal10des.) were incubated with the phosphatase inhibitor calyculin A (60 nM; solid line) or buffer as control (dashed line) for 10 min at 37°C prior to PAF stimulation (100 nM). The release of superoxide anions was recorded continuously. Abscissa: Time of study (min); ordinate: Superoxide production (Mcpm). […] Abscissa: Time of study (min); ordinate: Superoxide production (Mcpm). […] The results are given as peak values of superoxide production following addition of ATPγS (mean+SEM; n = 3).
Figure 4 More pronounced reactivation was induced by PAF in neutrophils desensitized by the pepducin F2Pal10. […] The results are given as peak values of superoxide production from three separate experiments for the first stimulation with FPR2 agonists (mean+SEM, n = 3). […]

[3] = test system: neutrophils; assay: Inhibition of FPR2 agonist-induced superoxide by pertussis toxin or kinase inhibitors; type: cell-based, human; conditions: for inhibition of F2Pal10- and WKYMVM-induced superoxide by kinase inhibitor: inhibitors 20 nM to 1 µM (1 µM shown), 15 min at 37°C, n = 3
Method: as §1, §2
A. Primary human neutrophils were treated with pertussis toxin (PTX, 500 ng/ml final concentration) and samples were withdrawn at indicated time points. […] As a control, the PMA response (5×10^−8 M final concentration) from control cells (120 min incubation without PTX, solid line in the inset) or treated with PTX for 120 min (dashed line in the inset) is shown. Superoxide production (peak values) from pertussis toxin treated neutrophils was compared to that from non-treated control cells. A representative experiment out of more than five is shown. B and C. Fluo-3-AM/FuraRED labeled neutrophils were incubated without any additive (solid lines) or with EGTA (2 mM; dotted lines). […] Traces of representative calcium responses are shown and at least three experiments have been performed. Abscissa, time of study (sec); ordinate, fluorescence (arbitrary unit). D. Primary human neutrophils were incubated with different pharmacological kinase inhibitors (1 µM final concentration) for 15 min at 37°C. Control cells were incubated at the same condition but received no inhibitors. […] Data are presented as % inhibition compared to the control response (peak values of superoxide production were used, mean±SEM, n = 3).
The effects of these inhibitors were determined using different concentrations ranging from 20 nM to 1 µM.

[4] = test system: desensitized FPR2; assay: ATP/ATPγS-induced cross-talk reactivation of desensitized FPR2 (superoxide); type: cell-based, human; conditions: desensitized by WKYMVM (40 nM) or F2Pal10 (500 nM); ATPγS 50 µM
Method: as §1
(§3) The NADPH-oxidase activity was determined using isoluminol-enhanced chemiluminescence (CL), [27]. The CL activity was measured in a six-channel Biolumat LB 9505 (Berthold Co., Wildbad, Germany), using disposable 4-ml polypropylene tubes with a 900 µl reaction mixture containing 10^5 cells, isoluminol (2×10^−5 M) and HRP (2 U). The tubes were equilibrated in the Biolumat for 5 min at 37°C, after which the stimulus (100 µl) was added and the light emission was recorded continuously. […]
Figure 3 PAF- or ATP-stimulation induces reactivation of desensitized FPR2. […] The FPR2 specific inhibitor PBP10 (1 µM) was added 1 min prior to PAF stimulation (dashed line) and the release of superoxide anions was recorded continuously. […] The release of superoxide anions was recorded continuously. […]

[5] = test system: P2Y2R; assay: Direct NADPH-oxidase activation in naive neutrophils by P2Y2R agonists; type: cell-based, human
Method: as §1
as §2, with “For studies with signaling inhibitors, cells were incubated with inhibitors at 37°C for 15 min before agonist addition. Control cells received no treatment but were incubated under the same conditions.” left out

[6] = biological target: T1, FPR2 (Homo sapiens, UniProt P25090); assay: Inhibition of F2Pal10-induced superoxide release by receptor inhibitors/antagonists; type: cell-based; conditions: F2Pal10 500 nM; PBP10 1 µM, cyclosporin H 1 µM; representative of more than five
T1 construct: Human peripheral blood neutrophils were isolated from buffy coats from healthy blood donors; endogenous in cells; host or cells: primary human peripheral blood neutrophils from buffy coats of healthy donors
T1 sequence (P25090 1-351): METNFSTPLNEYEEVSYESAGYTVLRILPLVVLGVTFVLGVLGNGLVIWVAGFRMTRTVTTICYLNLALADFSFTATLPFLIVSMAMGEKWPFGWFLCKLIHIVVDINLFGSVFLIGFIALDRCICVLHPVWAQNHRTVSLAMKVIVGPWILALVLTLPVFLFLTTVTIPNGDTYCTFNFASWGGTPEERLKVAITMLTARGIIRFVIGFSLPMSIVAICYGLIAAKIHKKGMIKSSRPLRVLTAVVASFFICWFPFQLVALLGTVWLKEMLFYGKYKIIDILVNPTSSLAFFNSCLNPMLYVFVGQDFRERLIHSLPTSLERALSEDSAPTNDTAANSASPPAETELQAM
Method: as §1, §3
Figure 1 The F2Pal10 pepducin specifically activates FPR2. A. Primary human neutrophils were activated by F2Pal10 (500 nM) in the absence (solid line) or presence of the receptor specific inhibitor PBP10 (FPR2 specific inhibitor; 1 µM final concentration, dashed line) or the FPR1 antagonist cyclosporin H (CysH; 1 µM final concentration, dotted line) and the release of superoxide anions was recorded continuously. […] The release of superoxide anions was recorded continuously. […]

[7] = biological target: T1, FPR2; assay: Neutrophil NADPH-oxidase activity (superoxide release), direct activation of naive cells; type: cell-based; conditions: read-out: maximum response relative to WKYMVM, superoxide peak, naive human neutrophils; % of response induced by WKYMVM
Method: as §1, §2
Data analysis was performed using GraphPad Prism 6.0 (Graphpad Software, San Diego, CA, USA).
Representative experiments out of more than five are shown and an arrow indicates the time point for agonist addition. Abscissa: Time of study (min); ordinate: Superoxide production (Mcpm).

[8] = biological target: T2, formyl peptide receptor 2 (FPR2) (human (endogenous in neutrophils), UniProt P25090 1-351); assay: cell-based or functional assay
T2 sequence (looked up): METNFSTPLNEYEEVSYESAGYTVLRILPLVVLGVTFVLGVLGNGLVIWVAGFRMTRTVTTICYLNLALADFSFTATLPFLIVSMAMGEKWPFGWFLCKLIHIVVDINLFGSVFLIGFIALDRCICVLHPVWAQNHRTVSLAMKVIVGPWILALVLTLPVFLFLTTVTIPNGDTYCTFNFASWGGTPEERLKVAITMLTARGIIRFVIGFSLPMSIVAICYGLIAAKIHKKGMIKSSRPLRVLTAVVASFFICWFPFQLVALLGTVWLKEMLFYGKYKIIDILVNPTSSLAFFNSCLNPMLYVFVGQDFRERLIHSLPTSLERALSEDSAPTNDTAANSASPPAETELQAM

Molecule: C/C1=C/C(=O)O[C@@H]2C[C@@H](CC[C@H](C)/C=C\C=C\CC1)O[C@@](O)([C@@H]1CSC(=O)N1)C2 [latrunculin A]
effect on neutrophil response to F2Pal10 ([1]; F2Pal10 500 nM, latrunculin A treated): dramatically increased and prolonged

Molecule: Cc1nnc2n1-c1sc(CCC(=O)N3CCOCC3)cc1C(c1ccccc1Cl)=NC2 [WEB2086]
inhibition of PAF response in FPR2-desensitized neutrophils [2]: inhibited

Molecule: CCCCCCCCCCCCCC(=O)O[C@@H]1[C@@H](C)[C@@]2(O)[C@@H](C=C(CO)C[C@]3(O)C(=O)C(C)=C[C@@H]23)[C@@H]2C(C)(C)[C@]12OC(C)=O [PMA]
PMA responsiveness of pertussis toxin treated cells ([3]; PMA 5×10^−8 M, PTX 120 min): retained their responsiveness to PMA

Molecule: Nc1ncnc2c1ncn2[C@@H]1O[C@H](CO[P@](=O)(O)O[P@](=O)(O)O[P@@](=O)(O)S)[C@@H](O)[C@H]1O [ATPγS]
superoxide release in FPR2-desensitized cells by P2Y2R agonist [4]: induced a release of superoxide anions in FPR2 desensitized cells | direct activation of NADPH-oxidase in naive neutrophils [5]: can not directly activate the NADPH-oxidase in naïve neutrophils

inhibition of F2Pal10-induced superoxide response [6]: not affected
Molecule: cyclosporin H

Molecule: C[S+]([O-])c1ccc(-c2nc(-c3ccncc3)c(-c3ccc(F)cc3)[nH]2)cc1 (stereo not shown) [SB203580]
inhibition of F2Pal10- and WKYMVM-induced superoxide by kinase inhibitor ([3]; WKYMVM 50 nM, F2Pal10 500 nM): Very similar degrees of inhibition

Molecule: TNFα
priming effect on F2Pal10-induced superoxide ([1]; F2Pal10 500 nM): Very similar priming effects | priming effect on WKYMVM-induced superoxide [1]: significantly more superoxide than non-primed control cells

Emax [7]: 70%
Molecule: CCCCCCCCCCCCCCCC(=O)N[C@@H](CCCCN)C(=O)N[C@H](C(=O)N[C@@H](Cc1c[nH]cn1)C(=O)N[C@@H](CCCCN)C(=O)N[C@@H](CCCCN)C(=O)NCC(=O)N[C@@H](CCSC)C(=O)N[C@H](C(=O)N[C@@H](CCCCN)C(=O)N[C@@H](CO)C(=O)O)[C@@H](C)CC)[C@@H](C)CC [F2Pal10] (Palmitoyl-KIHKKGMIKS-OH)

Molecule: pertussis toxin
inhibition of F2Pal10- and WKYMVM-induced oxidase response by pertussis toxin ([3]; PTX 500 ng/ml, 90 and 120 min, WKYMVM 50 nM, F2Pal10 500 nM): largely inhibited

Molecule: O=c1c(-c2ccc(O)cc2)coc2cc(O)cc(O)c12 [Genistein]
inhibition of F2Pal10- and WKYMVM-induced superoxide by kinase inhibitor ([3]; WKYMVM 50 nM, F2Pal10 500 nM): Very similar degrees of inhibition

Molecule: Nc1ncnc2c1ncn2[C@@H]1O[C@H](COP(=O)(O)OP(=O)(O)OP(=O)(O)O)[C@@H](O)[C@H]1O [ATP]
superoxide release in FPR2-desensitized cells by P2Y2R agonist [4]: induced a release of superoxide anions in FPR2 desensitized cells | direct activation of NADPH-oxidase in naive neutrophils [5]: can not directly activate the NADPH-oxidase in naïve neutrophils

Molecule: CC(C)(C)n1nc(-c2ccc(Cl)cc2)c2c(N)ncnc21 [PP2]
inhibition of F2Pal10- and WKYMVM-induced superoxide by kinase inhibitor ([3]; WKYMVM 50 nM, F2Pal10 500 nM): Very similar degrees of inhibition

Molecule: COC[C@@H]([C@H](O)[C@H](O)C(=O)NCC[C@H](C)c1nc(/C=C/C[C@@H]2O[C@]3(C[C@@H](O)[C@@H]2C)O[C@H]([C@H](C[C@H](O)[C@H](C)[C@H](O)[C@H](C)/C=C(C)/C(C)=C/C=C/C(C)=C\C#N)OC)[C@H](OP(=O)(O)O)C3(C)C)co1)N(C)C [calyculin A]
inhibition of PAF response in FPR2-desensitized neutrophils [2]: inhibited | priming effect on F2Pal10-induced superoxide ([1]; F2Pal10 500 nM): Very similar priming effects | priming effect on WKYMVM-induced superoxide [1]: significantly more superoxide than non-primed control cells

Molecule: COC[C@H]1OC(=O)c2coc3c2[C@@]1(C)C1=C(C3=O)[C@@H]2CCC(=O)[C@@]2(C)C[C@H]1OC(C)=O [Wortmannin]
inhibition of F2Pal10- and WKYMVM-induced superoxide by kinase inhibitor ([3]; WKYMVM 50 nM, F2Pal10 500 nM): Very similar degrees of inhibition

Molecule: platelet activating factor [PAF]
reactivation of desensitized FPR2 by PAF ([2]; FPR2-desensitized neutrophils): reactivates desensitized FPR2 to an actively signaling state

maximum superoxide response of human neutrophils, relative to that induced by WKYMVM [8]: 70% | superoxide release (NADPH-oxidase activity, isoluminol chemiluminescence) from human neutrophils, F2Pal10 50-2000 nM, EC50 [8]: ~300 nM
Molecule: Palmitoyl-KIHKKGMIKS [F2Pal10 pepducin]
